Reference: patent publication US20160067187A1, “Methods for Treating or Preventing Migraines” (Validus Pharmaceuticals LLC, priority 2005, published 2016)

What was measured:
[1] = system: subjects with migraine headache; test: Open-label pilot study of safety, effectiveness and tolerability in the prophylactic treatment of migraine (Example 1); format: in vivo, human
Method: An open-label pilot study was performed to evaluate the safety, effectiveness and tolerability of the MAOI isocarboxyzid (Marplan®) in the prophylactic treatment of migraine.
Male and female subjects 18-60 years of age were recruited. […] The subject must have had approximately 3-12 migraine headaches per month for the 3 months prior to entering the screening period. Major exclusion criteria included a history of cluster headache, migraine with prolonged aura, and atypical forms of migraine. […] Concomitant use of tryptans, NSAID's, antidepressants and other commonly used ant-migraine agents was prohibited. The Headache Assessment Scale and other assessments were recorded at Baseline and Weeks 1, 4, 8, 12, 16 and 20. Primary safety and efficacy analysis were based on the intention-to-treat population. Safety data included laboratory data, adverse events, vital signs, and ECG's. The primary efficacy measure was within-subject change from baseline in migraine frequency.
Fourteen subjects had at least on post-baseline assessment, and seven subjects completed the full 20 weeks of treatment (Table 1a,b). […] Five subjects (31%) withdrew due to adverse events. […] The mean does for completers at the end of study was 38.6 mg (Table 2). […] At baseline, subjects reported an average migraine frequency of 5.2 +1.9 attacks/month. […] At week 20, a frequency of 0.4±0.7 (p<0.001) was observed. […] Because of the small number of subjects and relatively high dropout rate, an analysis of the data using a Last Observation Carried Forward (LOF) procedure was undertaken.

[2] = system: patients with tension-type headaches; test: Study of treatment of chronic tension-type headache (Example 5); format: in vivo, human
Text: (§1) This study is designed to evaluate the efficacy of isocarboxazid in preventing migraines and in the treatment of chronic tension-type headache.
(§2) A total of 61 patients suffering from chronic tension-type headache are recruited. […] While on this therapy, 35 of the 42 migraine patients and 16 of the 17 patients with tension-type headaches are experiencing good or very good improvement in their symptoms. […] In tension-type headaches, the effect may occur at the earliest 3-6 weeks and in the case of migraines at the earliest 6-8 weeks after the start of treatment. The therapeutic result is independent of any concurrent depression.

[3] = system: patients suffering from migraine with aura; test: Double blind, randomized, placebo-controlled study in migraine with aura (Example 2); format: in vivo, human; settings: 10 mg to 40 mg per day, oral
Method: A double blind, multicenter, randomized, placebo-controlled study is performed to evaluate the efficacy of isocarboxazid in treating patients suffering from migraine with aura.
(§3) A total of 16 patients participate in the study in […]. The age of the recruited patients ranges between 18 years and 75 years. Both male and female patients are selected for the study. Recruitment period for the study is 5 months.
Isocarboxazid is prescribed as a prophylaxis to one group of patients. Also, isocarboxazid is prescribed after the expression of symptoms to another group of patients. […] Dose increments are based on the investigator's judgment of the patient's response. After 4 weeks of therapy on 20 mg per day, the doses may be increased to 30 mg per day, 10 mg in the AM and 20 mg in the PM. After 4 weeks of therapy on 30 mg per day, doses may be increased to 40 mg per day, 20 mg in the AM and 20 mg in the PM. After 4 weeks of 40 mg per day, the doses may be increased to 50 mg per day, 20 mg in the AM and 30 mg in the PM. After 4 weeks of 50 mg per day, the doses may be increased to 60 mg per day, 30 mg in the AM and 30 mg in the PM. The duration of the medication treatment is a total of 20 weeks. […]
(§4) In order to determine the efficacy of isocarboxazid, pain intensity is evaluated on an assessment scale and recoded in an assessment sheet. […]
(§5) The collected data are statistically analyzed.

[4] = system: patients suffering from migraine without aura; test: Double blind, randomized, placebo-controlled study in migraine without aura (Example 3); format: in vivo, human; settings: 10 mg to 40 mg per day, oral
Text: as §3
Isocarboxazid is prescribed as a prophylaxis to one group of patients. Also, isocarboxazid is prescribed after the expression of symptoms to another group of patients. […] Dose increments are based on the investigator's judgment of the patient's response. After 4 weeks of therapy on 20 mg per day, the doses may be increased to 30 mg per day, 10 mg in the AM and 20 mg in the PM. After 4 weeks of therapy on 30 mg per day, doses may be increased to 40 mg per day, 20 mg in the AM and 20 mg in the PM. After 4 weeks of 40 mg per day, the doses may be increased to 50 mg per day, 20 mg in the AM and 30 mg in the PM. After 4 weeks of 50 mg per day, the doses may be increased to 60 mg per day, 30 mg in the AM and 30 mg in the PM. The duration of the medication treatment is a total of 20 weeks.
Patients in the study are diagnosed for the symptoms of migraine without aura. Diagnosis is performed according to the criteria set forth by the International Headache Society. […]
as §4, §5

acute migraine headaches = test: Double blind, placebo-controlled single dose study in acute migraine headaches (Example 4); format: in vivo, human; settings: 20 and 40 mg single doses; after 2 hrs and 24 hours
Method: A double blind, multicenter, randomized, placebo-controlled single dose study to evaluate the efficacy of isocarboxazid in the treatment of acute migraine headaches is conducted.
The study consists of a screening visit, at home treatment of a single migraine attack, and a follow up visit 1-5 days following treatment. In addition to safety evaluations, the patients are evaluated for efficacy based on superiority over the placebo at 2 hour and 24 hour periods
after dosing for a) pain relief; b) incidence of photophobia; c) incidence of phonophobia; and d) incidence of nausea.
The results are collected from 30 patients.

migraine patients = test: Study of preventing migraines (Example 5); format: in vivo, human
Text: as §1, §2

[5] = human, in vivo, inhaled or intranasal, 10 mg

Compound: Cc1cc(C(=O)NNCc2ccccc2)no1 [isocarboxazid]
- Discontinued (Lack of efficacy), number of subjects (%) ([1]; 16 subjects at baseline visit, 20 weeks): 0 (0%)
- Change from baseline (mean ± SD) in migraine frequency ([1]; LOCF, n 14, p-value 7.0 × 10^−6): 3.8 ± 2.8
- Change from baseline (mean ± SD) in migraine frequency ([1]; Observed cases, n 7, p-value 1.5 × 10^−7): 5.9 ± 1.5
- reduction in migraine frequency during the course of treatment ([1]; all subjects): significant reduction
- Adverse Event: Anxiety, Number ([1]; both, human, in vivo, 20 weeks): 1
- Adverse Event: Fatigue, Number ([1]; both, human, in vivo, 20 weeks): 2
- Adverse Event: Insomnia, Number ([1]; both, human, in vivo, 20 weeks): 1
- Adverse Event: Nosebleed, Number ([1]; both, human, in vivo, 20 weeks): 1
- Discontinued (Adverse Experience), number of subjects (%) ([1]; both, human, in vivo, 20 weeks): 5 (31%)
- subjects who withdrew due to adverse events ([1]; both, human, in vivo, 20 weeks): 31%
- reduction in migraine frequency (clinically significant response) reached by all completers ([1]; by week 16, all subjects completing the study, FIG. 3): ≥ 50%
- maximum dose tolerated by most subjects ([1]; most subjects, FIG. 1, titrated from 20 mg per day up to 60 mg per day): 20 to 40 mg/day
- reductions in migraine frequency by week 8 ([1]; week 8, FIG. 2): significant reductions
- migraine frequency at week 20 ([1]; week 20, baseline 5.2 +1.9 attacks/month, p<0.001): 0.4±0.7 attacks/month
- earliest occurrence of the effect after the start of treatment [2]: 3-6 weeks
- patients experiencing good or very good improvement in their symptoms ([2]; 10 to 60 mg daily dose, about 8 months on average): 16 of the 17
- effect versus placebo in treating and preventing migraine with aura [3]: superior effect over the placebo
- effect versus placebo in treating and preventing migraine without aura [4]: superior effect over the placebo
- effect versus placebo in treating acute headaches (acute migraine headaches): superior effect over a placebo
- patients experiencing good or very good improvement in their symptoms (migraine patients; migraine patients, 10 to 60 mg daily dose, about 8 months on average): 35 of the 42
- earliest occurrence of the effect after the start of treatment (migraine patients; migraines): 6-8 weeks
- share of the maximum plasma concentration (Cmax) reached at 30 minutes after administration [5]: 60%
